Test results reported in paper PMC8330742, “New benzothieno[2,3-c]pyridines as non-steroidal CYP17 inhibitors: design, synthesis, anticancer screening, apoptosis induction, and in silico ADME profile studies” (Journal of Enzyme Inhibition and Medicinal Chemistry, 2021).

Assays:
CCRF-CEM = assay: NCI-60 SRB screen; assay type: cell-based; settings: single dose 10^−5 M
HL-60(TB) = assay: NCI-60 SRB screen; assay type: cell-based, human; settings: HL-60 (TB); single dose 10^−5 M
K-562 = assay: NCI-60 SRB screen; assay type: cell-based, human; settings: K-562; single dose 10^−5 M
MOLT-4 = assay: NCI-60 SRB screen; assay type: cell-based; settings: MOLT-4; single dose 10^−5 M
RPMI-8226 = assay: NCI-60 SRB screen; assay type: cell-based; settings: RPMI-8226; single dose 10^−5 M
SR = assay: NCI-60 SRB screen; assay type: cell-based; settings: single dose 10^−5 M
A549/ATCC = assay: NCI-60 SRB screen; assay type: cell-based, human; settings: single dose 10^−5 M
EKVX = assay: NCI-60 SRB screen; assay type: cell-based, human; settings: single dose 10^−5 M
HOP-62 = assay: NCI-60 SRB screen; assay type: cell-based, human; settings: HOP-62; single dose 10^−5 M
HOP-92 = assay: NCI-60 SRB screen; assay type: cell-based, human; settings: HOP-92; single dose 10^−5 M
NCI-H226 = assay: NCI-60 SRB screen; assay type: cell-based, human; settings: NCI-H226; single dose 10^−5 M
NCI-H23 = assay: NCI-60 SRB screen; assay type: cell-based, human; settings: NCI-H23; single dose 10^−5 M
NCI-H322M = assay: NCI-60 SRB screen; assay type: cell-based, human; settings: single dose 10^−5 M
NCI-H460 = assay: NCI-60 SRB screen; assay type: cell-based, human; settings: NCI-H460; single dose 10^−5 M
NCI-H522 = assay: NCI-60 SRB screen; assay type: cell-based, human; settings: NCI-H522; single dose 10^−5 M
COLO 205 = assay: NCI-60 SRB screen; assay type: cell-based, human; settings: COLO 205; single dose 10^−5 M
HCC-2998 = assay: NCI-60 SRB screen; assay type: cell-based, human; settings: HCC-2998; single dose 10^−5 M
HCT-116 = assay: NCI-60 SRB screen; assay type: cell-based, human; settings: HCT-116; single dose 10^−5 M
HCT-15 = assay: NCI-60 SRB screen; assay type: cell-based, human; settings: HCT-15; single dose 10^−5 M
HT-29 = assay: NCI-60 SRB screen; assay type: cell-based; settings: HT-29; single dose 10^−5 M
KM12 = assay: NCI-60 SRB screen; assay type: cell-based, human; settings: KM12; single dose 10^−5 M
SW-620 = assay: NCI-60 SRB screen; assay type: cell-based; settings: SW-620; single dose 10^−5 M
SF-268 = assay: NCI-60 SRB screen; assay type: cell-based, human; settings: SF-268; single dose 10^−5 M
SF-295 = assay: NCI-60 SRB screen; assay type: cell-based, human; settings: SF-295; single dose 10^−5 M
SF-539 = assay: NCI-60 SRB screen; assay type: cell-based, human; settings: SF-539; single dose 10^−5 M
SNB-19 = assay: NCI-60 SRB screen; assay type: cell-based; settings: SNB-19; single dose 10^−5 M
SNB-75 = assay: NCI-60 SRB screen; assay type: cell-based, human; settings: SNB-75; single dose 10^−5 M
U251 = assay: NCI-60 SRB screen; assay type: cell-based, human; settings: U251; single dose 10^−5 M
LOX IMVI = assay: NCI-60 SRB screen; assay type: cell-based, human; settings: single dose 10^−5 M
MALME-3M = assay: NCI-60 SRB screen; assay type: cell-based, human; settings: single dose 10^−5 M
M14 = assay: NCI-60 SRB screen; assay type: cell-based, human; settings: M14; single dose 10^−5 M
MDA-MB-435 = assay: NCI-60 SRB screen; assay type: cell-based; settings: MDA-MB435; single dose 10^−5 M
SK-MEL-2 = assay: NCI-60 SRB screen; assay type: cell-based, human; settings: SK-MEL-2; single dose 10^−5 M
SK-MEL-28 = assay: NCI-60 SRB screen; assay type: cell-based; settings: SK-MEL-28; single dose 10^−5 M
SK-MEL-5 = assay: NCI-60 SRB screen; assay type: cell-based, human; settings: SK-MEL-5; single dose 10^−5 M
UACC-257 = assay: NCI-60 SRB screen; assay type: cell-based, human; settings: UACC-275 (so in the source); single dose 10^−5 M
UACC-62 = assay: NCI-60 SRB screen; assay type: cell-based, human; settings: UACC-62; single dose 10^−5 M
IGROV1 = assay: NCI-60 SRB screen; assay type: cell-based, human; settings: IGROV1; single dose 10^−5 M
OVCAR-3 = assay: NCI-60 SRB screen; assay type: cell-based, human; settings: OVCAR-3; single dose 10^−5 M
OVCAR-4 = assay: NCI-60 SRB screen; assay type: cell-based, human; settings: OVCAR-4; single dose 10^−5 M
OVCAR-5 = assay: NCI-60 SRB screen; assay type: cell-based, human; settings: OVCAR-5; single dose 10^−5 M
OVCAR-8 = assay: NCI-60 SRB screen; assay type: cell-based, human; settings: OVCAR-8; single dose 10^−5 M
NCI/ADR-RES = assay: NCI-60 SRB screen; assay type: cell-based, human; settings: single dose 10^−5 M
SK-OV-3 = assay: NCI-60 SRB screen; assay type: cell-based, human; settings: SK-OV-3; single dose 10^−5 M
786-0 = assay: NCI-60 SRB screen; assay type: cell-based; settings: 786-0; single dose 10^−5 M
A498 = assay: NCI-60 SRB screen; assay type: cell-based, human; settings: A498; single dose 10^−5 M
ACHN = assay: NCI-60 SRB screen; assay type: cell-based; settings: single dose 10^−5 M
CAKI-1 = assay: NCI-60 SRB screen; assay type: cell-based, human; settings: CAKI-1; single dose 10^−5 M
RXF 393 = assay: NCI-60 SRB screen; assay type: cell-based, human; settings: RXF 393; single dose 10^−5 M
SN12C = assay: NCI-60 SRB screen; assay type: cell-based, human; settings: SN 12 C; single dose 10^−5 M
TK-10 = assay: NCI-60 SRB screen; assay type: cell-based, human; settings: TK-10; single dose 10^−5 M
UO-31 = assay: NCI-60 SRB screen; assay type: cell-based, human; settings: UO-31; single dose 10^−5 M
[1] = system: panel of 60 cancer cell lines; assay: NCI-60 SRB screen, mean or range over the panel; assay type: cell-based, human; settings: mean over the cell lines; single dose 10^−5 M

## COc1ccc(C2NC(=O)Cc3c2sc2c(F)cccc32)c(OC)c1 (stereo not shown) [Compound 3a]
CCRF-CEM
  Growth inhibition (%): −5.88%
HL-60(TB)
  Growth inhibition (%): −7.79%
K-562
  Growth inhibition (%): 12.84%
MOLT-4
  Growth inhibition (%): 2.64%
RPMI-8226
  Growth inhibition (%): −2.54%
SR
  Growth inhibition (%): 28.66%
A549/ATCC
  Growth inhibition (%): −10.00%
EKVX
  Growth inhibition (%): 7.10%
HOP-62
  Growth inhibition (%): 11.63%
HOP-92
  Growth inhibition (%): 2.88%
NCI-H226
  Growth inhibition (%): 13.11%
NCI-H23
  Growth inhibition (%): 0.15%
NCI-H322M
  Growth inhibition (%): −3.18%
NCI-H460
  Growth inhibition (%): 2.47%
NCI-H522
  Growth inhibition (%): 4.48%
COLO 205
  Growth inhibition (%): −16.49%
HCC-2998
  Growth inhibition (%): −15.27%
HCT-116
  Growth inhibition (%): −0.50%
HCT-15
  Growth inhibition (%): −3.42%
HT-29
  Growth inhibition (%): −7.86%
KM12
  Growth inhibition (%): 7.40%
SW-620
  Growth inhibition (%): 3.98%
SF-268
  Growth inhibition (%): 8.45%
SF-295
  Growth inhibition (%): −2.52%
SF-539
  Growth inhibition (%): 11.49%
SNB-19
  Growth inhibition (%): 1.20%
SNB-75
  Growth inhibition (%): 17.27%
U251
  Growth inhibition (%): 2.07%
LOX IMVI
  Growth inhibition (%): 5.88%
MALME-3M
  Growth inhibition (%): 15.80%
M14
  Growth inhibition (%): 4.96%
MDA-MB-435
  Growth inhibition (%): 9.40%
SK-MEL-2
  Growth inhibition (%): −25.13%
SK-MEL-28
  Growth inhibition (%): −11.36%
SK-MEL-5
  Growth inhibition (%): 2.83%
UACC-257
  Growth inhibition (%): −6.31%
UACC-62
  Growth inhibition (%): 10.62%
IGROV1
  Growth inhibition (%): 8.40%
OVCAR-3
  Growth inhibition (%): −0.33%
OVCAR-4
  Growth inhibition (%): 3.35%
OVCAR-5
  Growth inhibition (%): −3.20%
OVCAR-8
  Growth inhibition (%): −3.27%
NCI/ADR-RES
  Growth inhibition (%): −2.37%
SK-OV-3
  Growth inhibition (%): −0.85%
786-0
  Growth inhibition (%): −7.41%
A498
  Growth inhibition (%): 9.33%
ACHN
  Growth inhibition (%): 1.30%
CAKI-1
  Growth inhibition (%): 23.33%
RXF 393
  Growth inhibition (%): −2.63%
SN12C
  Growth inhibition (%): −0.49%
TK-10
  Growth inhibition (%): −29.42%
UO-31
  Growth inhibition (%): 32.68%
[1]
  Mean growth inhibition (%): 6.67%

## O=C1Cc2c(sc3c(F)cccc23)C(c2ccccc2[N+](=O)[O-])N1 (stereo not shown) [Compound 3c]
CCRF-CEM
  Growth inhibition (%): −10.16%
HL-60(TB)
  Growth inhibition (%): −15.87%
K-562
  Growth inhibition (%): 2.86%
MOLT-4
  Growth inhibition (%): −5.89%
RPMI-8226
  Growth inhibition (%): 4.62%
SR
  Growth inhibition (%): 0.60%
A549/ATCC
  Growth inhibition (%): −5.43%
EKVX
  Growth inhibition (%): 15.84%
HOP-62
  Growth inhibition (%): 8.52%
HOP-92
  Growth inhibition (%): 7.78%
NCI-H226
  Growth inhibition (%): 20.72%
NCI-H23
  Growth inhibition (%): 1.41%
NCI-H322M
  Growth inhibition (%): 1.00%
NCI-H460
  Growth inhibition (%): 23.13%
NCI-H522
  Growth inhibition (%): −1.98%
COLO 205
  Growth inhibition (%): −12.74%
HCC-2998
  Growth inhibition (%): −18.72%
HCT-116
  Growth inhibition (%): 14.07%
HCT-15
  Growth inhibition (%): −10.00%
HT-29
  Growth inhibition (%): −12.09%
KM12
  Growth inhibition (%): −0.49%
SW-620
  Growth inhibition (%): 20.70%
SF-268
  Growth inhibition (%): 6.16%
SF-295
  Growth inhibition (%): −0.58%
SF-539
  Growth inhibition (%): 10.42%
SNB-19
  Growth inhibition (%): −0.33%
SNB-75
  Growth inhibition (%): 10.03%
U251
  Growth inhibition (%): 14.88%
LOX IMVI
  Growth inhibition (%): 2.71%
MALME-3M
  Growth inhibition (%): 5.53%
M14
  Growth inhibition (%): −0.72%
MDA-MB-435
  Growth inhibition (%): −7.97%
SK-MEL-2
  Growth inhibition (%): −25.53%
SK-MEL-28
  Growth inhibition (%): −20.20%
SK-MEL-5
  Growth inhibition (%): 2.72%
UACC-257
  Growth inhibition (%): −19.98%
UACC-62
  Growth inhibition (%): 12.83%
IGROV1
  Growth inhibition (%): 34.55%
OVCAR-3
  Growth inhibition (%): 2.18%
OVCAR-4
  Growth inhibition (%): 7.00%
OVCAR-5
  Growth inhibition (%): −8.05%
OVCAR-8
  Growth inhibition (%): −7.33%
NCI/ADR-RES
  Growth inhibition (%): −5.76%
SK-OV-3
  Growth inhibition (%): 6.94%
786-0
  Growth inhibition (%): −9.68%
A498
  Growth inhibition (%): −15.47%
ACHN
  Growth inhibition (%): −0.56%
CAKI-1
  Growth inhibition (%): 24.17%
RXF 393
  Growth inhibition (%): −24.83%
SN12C
  Growth inhibition (%): 0.94%
TK-10
  Growth inhibition (%): −41.81%
UO-31
  Growth inhibition (%): 30.62%
[1]
  Mean growth inhibition (%): 1.33%
